Holding throughout (assay type): cell-based
Assay [1] concerns the target T1, Protein cereblon/Glycogen synthase kinase-3 beta (Homo sapiens, UniProt P49841+Q96SW2). Description: Protac activity at CRBN/GSK3beta in human SH-SY5Y cells assessed as induction of GSK3beta degradation at 1 uM measured after 24 hrs.
The target of assay [2] is T2, Protein cereblon/Glycogen synthase kinase-3 alpha (Homo sapiens, UniProt P49840+Q96SW2). The experiment in a line: Protac activity at CRBN/GSK3alpha in human SH-SY5Y cells assessed as induction of GSK3alpha protein degradation at 1 uM measured after 24 hrs.
T2 sequence (P49840 2-483 limits assumed): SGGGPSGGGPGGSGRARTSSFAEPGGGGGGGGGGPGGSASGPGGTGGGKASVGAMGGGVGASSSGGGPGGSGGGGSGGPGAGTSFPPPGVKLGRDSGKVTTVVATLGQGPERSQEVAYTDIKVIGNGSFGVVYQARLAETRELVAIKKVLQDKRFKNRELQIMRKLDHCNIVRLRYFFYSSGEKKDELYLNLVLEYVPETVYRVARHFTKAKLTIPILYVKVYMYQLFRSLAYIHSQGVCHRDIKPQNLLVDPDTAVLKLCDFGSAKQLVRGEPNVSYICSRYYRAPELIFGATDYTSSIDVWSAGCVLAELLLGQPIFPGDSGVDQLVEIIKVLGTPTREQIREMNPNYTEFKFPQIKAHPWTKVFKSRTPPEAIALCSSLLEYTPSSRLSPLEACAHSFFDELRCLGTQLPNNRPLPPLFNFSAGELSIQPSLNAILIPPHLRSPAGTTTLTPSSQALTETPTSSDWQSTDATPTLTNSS
T2 sequence (Q96SW2 whole entry partner): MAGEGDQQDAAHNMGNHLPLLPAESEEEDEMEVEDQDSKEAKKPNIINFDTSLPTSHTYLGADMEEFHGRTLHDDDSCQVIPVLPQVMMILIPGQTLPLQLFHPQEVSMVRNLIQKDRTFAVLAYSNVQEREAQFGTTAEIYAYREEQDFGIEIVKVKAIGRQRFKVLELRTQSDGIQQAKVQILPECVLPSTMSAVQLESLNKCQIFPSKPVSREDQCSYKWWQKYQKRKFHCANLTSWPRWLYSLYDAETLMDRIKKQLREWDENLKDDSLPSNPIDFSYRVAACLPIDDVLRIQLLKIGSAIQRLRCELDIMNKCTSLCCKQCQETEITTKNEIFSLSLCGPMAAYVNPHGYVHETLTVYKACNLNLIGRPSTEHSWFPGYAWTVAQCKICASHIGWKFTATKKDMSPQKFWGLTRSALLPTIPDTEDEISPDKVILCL
The target in assay [3] is T2, Protein cereblon/Glycogen synthase kinase-3 alpha. Description: Protac activity at CRBN/GSK3alpha in human SH-SY5Y cells assessed as induction of GSK3alpha degradation at 0.1 uM measured after 24 hrs.
Assay [4] has as its target T1, Protein cereblon/Glycogen synthase kinase-3 beta. The experiment in a line: Protac activity at CRBN/GSK3beta in human SH-SY5Y cells assessed as induction of GSK3beta degradation at 0.1 uM measured after 24 hrs.
For assay [5] the target is unchanged. Description: Protac activity at CRBN/GSK3beta in human SH-SY5Y cells assessed as induction of GSK3beta degradation at 10 uM measured after 24 hrs.
The target in assay [6] is T2, Protein cereblon/Glycogen synthase kinase-3 alpha. Description: Protac activity at CRBN/GSK3alpha in human SH-SY5Y cells assessed as induction of GSK3alpha protein degradation at 10 uM measured after 24 hrs.

The structures appear in SMILES notation. Where only a bound is given, the exact number is not on record here.

T1 sequence (P49841 whole entry, looked up): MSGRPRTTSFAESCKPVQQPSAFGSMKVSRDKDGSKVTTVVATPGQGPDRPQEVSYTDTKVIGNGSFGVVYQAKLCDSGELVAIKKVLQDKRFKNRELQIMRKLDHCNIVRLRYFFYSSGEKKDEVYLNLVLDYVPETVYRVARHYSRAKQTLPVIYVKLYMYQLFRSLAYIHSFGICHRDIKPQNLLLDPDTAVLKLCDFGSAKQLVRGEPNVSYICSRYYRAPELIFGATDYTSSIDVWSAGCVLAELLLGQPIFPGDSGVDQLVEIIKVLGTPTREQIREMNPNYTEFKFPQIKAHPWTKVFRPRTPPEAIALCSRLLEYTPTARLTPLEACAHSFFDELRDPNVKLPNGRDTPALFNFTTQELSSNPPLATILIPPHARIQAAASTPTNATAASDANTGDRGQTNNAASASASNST
T1 sequence (Q96SW2 whole entry, looked up): as the sequence (Q96SW2 whole entry partner) above

In the case of `COc1ccc(-c2ocnc2C(=O)NCCCc2cn(CCOCCOCCOCCOCCOCCOCCNc3cccc4c3C(=O)N(C3CCC(=O)NC3=O)C4=O)nn2)cc1I` (configuration not stated), the Activity was 50.1% in assay [1] and 25.2% in assay [2].

Turning to `COc1ccc(-c2ocnc2C(=O)NCCCc2cn(CCOCCOCCNc3cccc4c3C(=O)N(C3CCC(=O)NC3=O)C4=O)nn2)cc1Cl` (configuration not stated), the Activity was 28.2% in assay [1] and 43.8% in assay [2].

On to `Nc1ncc(-c2ccc(S(=O)(=O)N3CCN(CCCCc4cn(CCOCCOCCNc5cccc6c5C(=O)N(C5CCC(=O)NC5=O)C6=O)nn4)CC3)cc2)nc1C(=O)Nc1cccnc1` (configuration not stated), for which the Activity in assay [1] came out at 88.3%; in assay [2] it was 95.1%; in assay [3], 70.9%; in assay [4] it was 38.2%.

On to `Nc1ncc(-c2ccc(S(=O)(=O)N3CCN(Cc4cn(CCOCCOCCNc5cccc6c5C(=O)N(C5CCC(=O)NC5=O)C6=O)nn4)CC3)cc2)nc1C(=O)Nc1cccnc1` (configuration not stated), for which the Activity is 39.6% in assay [1], 68.9% in assay [2], 46.9% in assay [3] and 30.5% in assay [4].

On to `Nc1ncc(-c2ccc(S(=O)(=O)N3CCN(Cc4cn(CCOCCOCCOCCOCCOCCOCCNc5cccc6c5C(=O)N(C5CCC(=O)NC5=O)C6=O)nn4)CC3)cc2)nc1C(=O)Nc1cccnc1` (configuration not stated), for which the Activity in assay [1] is 61.3%; in assay [2], 75.4%; in assay [3], 29.7%; in assay [4] it was 15.2%.

With `COc1ccc(-c2ocnc2C(=O)NCCCc2cn(CCOCCOCCOCCOCCOCCOCCNc3cccc4c3C(=O)N(C3CCC(=O)NC3=O)C4=O)nn2)cc1Cl` (configuration not stated), the Activity in assay [1] was 88.8%; in assay [2], 60.7%.

In the case of `Nc1ncc(-c2ccc(S(=O)(=O)N3CCN(CCc4cn(CCOCCOCCOCCNc5cccc6c5C(=O)N(C5CCC(=O)NC5=O)C6=O)nn4)CC3)cc2)nc1C(=O)Nc1cccnc1` (configuration not stated), the Activity in assay [1] came out at 79.1%; in assay [2], 90.7%; in assay [3] it was 65%; in assay [4], 51.6%.

Take `COc1ccc(-c2ocnc2C(=O)NCCCc2cn(CCOCCOCCOCCOCCOCCNc3cccc4c3C(=O)N(C3CCC(=O)NC3=O)C4=O)nn2)cc1I` (configuration not stated): the figures for the Activity in assay [1] and in assay [2] were 56.5% and 55.6%, respectively.

For the compound `COc1ccc(-c2ocnc2C(=O)NCCCc2cn(CCOCCOCCOCCOCCNc3cccc4c3C(=O)N(C3CCC(=O)NC3=O)C4=O)nn2)cc1Cl` (configuration not stated), the Activity in assay [1] worked out at 49.2%; in assay [2], 69.5%.

For `COc1ccc(-c2ocnc2C(=O)NCCCc2cn(CCOCCOCCOCCOCCNc3cccc4c3C(=O)N(C3CCC(=O)NC3=O)C4=O)nn2)cc1I` (configuration not stated), the Activity in assay [1] turned out to be 25.9%; in assay [2], 46.5%.

Take `COc1ccc(-c2ocnc2C(=O)NCCCc2cn(CCOCCOCCOCCNc3cccc4c3C(=O)N(C3CCC(=O)NC3=O)C4=O)nn2)cc1I` (configuration not stated): the Activity in assay [1] is 22.8%; in assay [2], 60.9%.

With `COc1ccc(-c2ocnc2C(=O)NCCCc2cn(CCOCCOCCOCCOCCOCCNc3cccc4c3C(=O)N(C3CCC(=O)NC3=O)C4=O)nn2)cc1Cl` (configuration not stated), the Activity stood at 85.2% in assay [5], 54.6% in assay [1], 56.2% in assay [2] and 84.6% in assay [6].

For `Nc1ncc(-c2ccc(S(=O)(=O)N3CCN(Cc4cn(CCOCCOCCOCCNC(=O)CNc5cccc6c5CN(C5CCC(=O)NC5=O)C6=O)nn4)CC3)cc2)nc1C(=O)Nc1cccnc1` (configuration not stated), the Activity in assay [1] and in assay [2] was less than 5% throughout.

Consider `COc1ccc(-c2ocnc2C(=O)NCCCc2cn(CCOCCOCCOCCNC(=O)CNc3cccc4c3CN(C3CCC(=O)NC3=O)C4=O)nn2)cc1Cl` (configuration not stated), for which the Activity was 35.8% in assay [5], less than 5% in assay [1], less than 5% in assay [2] and less than 5% in assay [6].

In the case of `Nc1ncc(-c2ccc(S(=O)(=O)N3CCN(CCc4cn(CCOCCOCCOCCOCCOCCOCCNc5cccc6c5C(=O)N(C5CCC(=O)NC5=O)C6=O)nn4)CC3)cc2)nc1C(=O)Nc1cccnc1` (configuration not stated), the Activity came to 86% in assay [1], 93.9% in assay [2], 66.3% in assay [3] and 55.9% in assay [4].

As to `COc1ccc(-c2ocnc2C(=O)NCCCc2cn(CCOCCOCCNc3cccc4c3C(=O)N(C3CCC(=O)NC3=O)C4=O)nn2)cc1I` (configuration not stated), the Activity was 25.5% in assay [1] and 46.1% in assay [2].

In the case of `COc1ccc(-c2ocnc2C(=O)NCCCn2cc(CCCCC(=O)N[C@@H](C(=O)N3C[C@H](O)C[C@H]3C(=O)NCc3ccc(-c4scnc4C)cc3)C(C)(C)C)nn2)cc1Cl`, the Activity in assay [5], in assay [1], in assay [2] and in assay [6] was less than 5% throughout.

Turning to `COc1ccc(-c2ocnc2C(=O)NCCCn2cc(COCCOCCOCCOCC(=O)N[C@@H](C(=O)N3C[C@H](O)C[C@H]3C(=O)NCc3ccc(-c4scnc4C)cc3)C(C)(C)C)nn2)cc1Cl`, the Activity in assay [5], in assay [1], in assay [2] and in assay [6] was less than 5% in each case.

As for `Nc1ncc(-c2ccc(S(=O)(=O)N3CCN(CCc4cn(CCOCCOCCOCCOCCNc5cccc6c5C(=O)N(C5CCC(=O)NC5=O)C6=O)nn4)CC3)cc2)nc1C(=O)Nc1cccnc1` (configuration not stated), the Activity in assay [1] came to 83.1%; in assay [2] it was 91.8%; in assay [3], 63.8%; in assay [4] it was 55.9%.

Consider `Nc1ncc(-c2ccc(S(=O)(=O)N3CCN(Cc4cn(CCOCCOCCOCCOCCNc5cccc6c5C(=O)N(C5CCC(=O)NC5=O)C6=O)nn4)CC3)cc2)nc1C(=O)Nc1cccnc1` (configuration not stated), for which the Activity in assay [1] was 65%; in assay [2], 79.5%; in assay [3], 42%; in assay [4] it was 25.7%.

Turning to `Nc1ncc(-c2ccc(S(=O)(=O)N3CCN(CCc4cn(CCOCCOCCOCCOCCOCCNc5cccc6c5C(=O)N(C5CCC(=O)NC5=O)C6=O)nn4)CC3)cc2)nc1C(=O)Nc1cccnc1` (configuration not stated), the Activity in assay [1] came out at 81.3%; in assay [2], 87.8%; in assay [3], 68.1%; in assay [4] it was 61.6%.

As to `Nc1ncc(-c2ccc(S(=O)(=O)N3CCN(CCCCc4cn(CCOCCOCCOCCNc5cccc6c5C(=O)N(C5CCC(=O)NC5=O)C6=O)nn4)CC3)cc2)nc1C(=O)Nc1cccnc1` (configuration not stated), the Activity in assay [1] was found to be 89.7%; in assay [2] it was 93.8%; in assay [3], 69.3%; in assay [4], 54.6%.

As to `COc1ccc(-c2ocnc2C(=O)NCCCn2cc(COCCOCCOCCOc3cccc4c3CN(C3CCC(=O)NC3=O)C4=O)nn2)cc1Cl` (configuration not stated), the Activity was determined as 37.3% in assay [5], 14.5% in assay [1], 38.7% in assay [2] and 76.4% in assay [6].

Regarding `COc1ccc(-c2ocnc2C(=O)NCCCc2cn(CCOCCOCCOCCNc3cccc4c3C(=O)N(C3CCC(=O)NC3=O)C4=O)nn2)cc1Cl` (configuration not stated), the Activity in assay [5] was determined as 73.3%; in assay [1], 36.8%; in assay [2], 62.4%; in assay [6], 89.9%.

For `Nc1ncc(-c2ccc(S(=O)(=O)N3CCN(CCc4cn(CCOCCOCCNc5cccc6c5C(=O)N(C5CCC(=O)NC5=O)C6=O)nn4)CC3)cc2)nc1C(=O)Nc1cccnc1` (configuration not stated), the Activity in assay [1] came to 79.5%; in assay [2], 95.2%; in assay [3], 61.1%; in assay [4], 41.9%.

The record behind these values is ChEMBL document CHEMBL5038618, “Discovery of PT-65 as a highly potent and selective Proteolysis-targeting chimera degrader of GSK3 for treating Alzheimer's disease” (Eur J Med Chem, 2021).
